Source: patent US10253052B2, “HBED-bisphosphonates, radiometal conjugates and their use as theranostic agents” (Five Eleven Pharma Inc., priority 2015, dated 2019)
Values joined by “and” are separate entries in the source; they are usually repeats but may differ in a detail not shown here. Identical values can stand only once. Marks after values point to notes of the source that are not given here.

Columns and labels:
[1] = In vivo biodistribution in mice; set-up: species or system normal CD-1 male mice; conditions: for bone to blood ratio / bone to muscle ratio / Biodistribution: Blood / Biodistribution: Bone / Biodistribution: Brain / Biodistribution: Heart / Biodistribution: Kidney / Biodistribution: Liver / Biodistribution: Lung / Biodistribution: Muscle / Biodistribution: Pancreas / Biodistribution: Skin / Biodistribution: Spleen: iv; for Biodistribution result in words (organ uptake, retention, excretion): normal mice after iv injection
Summary of the method: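 Uptake values are % injected dose per gram of wet tissue, from gamma counting of weighed organs with tibia plus femur taken as bone. Tracers (20-30 μCi per animal) were given i.v. to healthy male CD-1 mice (25-30 g), with sacrifice at 2, 30, 60 and 120 min post injection.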

[2] = In vitro binding to hydroxyapatite; conditions: 20 mg hydroxyapatite in saline, 10 min at room temperature
Summary of the method: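 Binding is given as the percentage of ^68Ga activity retained by hydroxyapatite, measured by gamma counting of the solid versus the pooled supernatant and saline washes. The tracer (1 μCi) was exposed for 10 min at room temperature to hydroxyapatite pre-soaked 24 h in isotonic saline.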

SMILES: O=C([O-])CN(CCN(CC(=O)[O-])Cc1cc(CCC(=O)NC(P(=O)(O)O)P(=O)(O)O)ccc1[O-])Cc1cc(CCC(=O)NCCCNC(=O)CCc2ccc(O)c(CN(CCN(CC(=O)O)Cc3cc(CCC(=O)NC(P(=O)(O)O)P(=O)(O)O)ccc3O)CC(=O)O)c2)ccc1[O-].[68Ga+3] [[^68Ga]3]
- bone to blood ratio ([1]; 2 min): 0.5
- bone to muscle ratio ([1]; 2 min): 2.6
- Biodistribution: Blood ([1]; 2 min post injection): 8.33 ± 0.23 % dose/g
- Biodistribution: Bone ([1]; 2 min post injection): 4.17 ± 0.35 % dose/g
- Biodistribution: Brain ([1]; 2 min post injection): 0.28 ± 0.03 % dose/g
- Biodistribution: Heart ([1]; 2 min post injection): 3.45 ± 0.25 % dose/g
- Biodistribution: Kidney ([1]; 2 min post injection): 12.2 ± 1.51 % dose/g
- Biodistribution: Liver ([1]; 2 min post injection): 19.7 ± 1.05 % dose/g
- Biodistribution: Lung ([1]; 2 min post injection): 71.6 ± 6.33 % dose/g
- Biodistribution: Muscle ([1]; 2 min post injection): 1.62 ± 0.47 % dose/g
- Biodistribution: Pancreas ([1]; 2 min post injection): 1.73 ± 0.08 % dose/g
- Biodistribution: Skin ([1]; 2 min post injection): 1.24 ± 0.01 % dose/g
- Biodistribution: Spleen ([1]; 2 min post injection): 12.8 ± 4.35 % dose/g
- bone to blood ratio ([1]; 30 min): 4.8
- bone to muscle ratio ([1]; 30 min): 14
- Biodistribution: Blood ([1]; 30 min (0.5 hr) post injection): 1.92 ± 0.15 % dose/g
- Biodistribution: Bone ([1]; 30 min (0.5 hr) post injection): 9.26 ± 1.45 % dose/g
- Biodistribution: Brain ([1]; 30 min (0.5 hr) post injection): 0.06 ± 0.01 % dose/g
- Biodistribution: Heart ([1]; 30 min (0.5 hr) post injection): 2.02 ± 0.97 % dose/g
- Biodistribution: Kidney ([1]; 30 min (0.5 hr) post injection): 17.1 ± 0.70 % dose/g
- Biodistribution: Liver ([1]; 30 min (0.5 hr) post injection): 9.86 ± 0.66 % dose/g
- Biodistribution: Lung ([1]; 30 min (0.5 hr) post injection): 15.6 ± 1.39 % dose/g
- Biodistribution: Muscle ([1]; 30 min (0.5 hr) post injection): 0.68 ± 0.09 % dose/g
- Biodistribution: Pancreas ([1]; 30 min (0.5 hr) post injection): 1.07 ± 1.04 % dose/g
- Biodistribution: Skin ([1]; 30 min (0.5 hr) post injection): 1.10 ± 0.18 % dose/g
- Biodistribution: Spleen ([1]; 30 min (0.5 hr) post injection): 8.33 ± 2.22 % dose/g
- bone to blood ratio ([1]; 60 min): 13
- bone to muscle ratio ([1]; 60 min): 16
- Biodistribution: Blood ([1]; 60 min (1 hr) post injection): 0.70 ± 0.13 % dose/g
- Biodistribution: Bone ([1]; 60 min (1 hr) post injection): 9.26 ± 1.13 % dose/g
- Biodistribution: Brain ([1]; 60 min (1 hr) post injection): 0.06 ± 0.01 % dose/g
- Biodistribution: Heart ([1]; 60 min (1 hr) post injection): 1.16 ± 0.13 % dose/g
- Biodistribution: Kidney ([1]; 60 min (1 hr) post injection): 7.99 ± 1.08 % dose/g
- Biodistribution: Liver ([1]; 60 min (1 hr) post injection): 23.5 ± 3.13 % dose/g
- Biodistribution: Lung ([1]; 60 min (1 hr) post injection): 41.3 ± 5.15 % dose/g
- Biodistribution: Muscle ([1]; 60 min (1 hr) post injection): 0.57 ± 0.14 % dose/g
- Biodistribution: Pancreas ([1]; 60 min (1 hr) post injection): 0.26 ± 0.02 % dose/g
- Biodistribution: Skin ([1]; 60 min (1 hr) post injection): 0.41 ± 0.02 % dose/g
- Biodistribution: Spleen ([1]; 60 min (1 hr) post injection): 10.3 ± 2.65 % dose/g
- bone to blood ratio ([1]; 120 min): 29
- bone to muscle ratio ([1]; 120 min): 39
- Biodistribution: Blood ([1]; 120 min post injection): 0.37 ± 0.07 % dose/g
- Biodistribution: Bone ([1]; 120 min post injection): 10.6 ± 0.85 % dose/g
- Biodistribution: Brain ([1]; 120 min post injection): 0.05 ± 0.01 % dose/g
- Biodistribution: Heart ([1]; 120 min post injection): 1.05 ± 0.11 % dose/g
- Biodistribution: Kidney ([1]; 120 min post injection): 8.99 ± 0.20 % dose/g
- Biodistribution: Liver ([1]; 120 min post injection): 25.4 ± 2.80 % dose/g
- Biodistribution: Lung ([1]; 120 min post injection): 34.8 ± 1.90 % dose/g
- Biodistribution: Muscle ([1]; 120 min post injection): 0.28 ± 0.04 % dose/g
- Biodistribution: Pancreas ([1]; 120 min post injection): 0.25 ± 0.03 % dose/g
- Biodistribution: Skin ([1]; 120 min post injection): 0.33 ± 0.06 % dose/g
- Biodistribution: Spleen ([1]; 120 min post injection): 15.7 ± 1.59 % dose/g
- Biodistribution result in words (organ uptake, retention, excretion) [1]: high liver uptake and less bone localization
- Hydroxyapatite Binding (%) [2]: 95.8 ± 0.1%

SMILES: O=C([O-])CN1CCN(CC(=O)[O-])CCN(CC(=O)NCCNC(=O)CCc2ccc(O)c(CN(CCN(CC(=O)O)Cc3cc(CCC(=O)NC(P(=O)(O)O)P(=O)(O)O)ccc3O)CC(=O)O)c2)CCN(CC(=O)[O-])CC1.[177Lu+3] [[^177Lu]1h]
- bone to blood ratio ([1]; 30 min): 24
- bone to muscle ratio ([1]; 30 min): 41
- Biodistribution: Blood ([1]; 30 min (0.5 hr) post injection): 0.54 ± 0.11 % dose/g
- Biodistribution: Bone ([1]; 30 min (0.5 hr) post injection): 12.4 ± 1.19 % dose/g
- Biodistribution: Brain ([1]; 30 min (0.5 hr) post injection): 0.03 ± 0.01 % dose/g
- Biodistribution: Heart ([1]; 30 min (0.5 hr) post injection): 0.23 ± 0.05 % dose/g
- Biodistribution: Kidney ([1]; 30 min (0.5 hr) post injection): 1.21 ± 0.94 % dose/g
- Biodistribution: Liver ([1]; 30 min (0.5 hr) post injection): 0.20 ± 0.03 % dose/g
- Biodistribution: Lung ([1]; 30 min (0.5 hr) post injection): 1.35 ± 1.52 % dose/g
- Biodistribution: Muscle ([1]; 30 min (0.5 hr) post injection): 0.39 ± 0.24 % dose/g
- Biodistribution: Pancreas ([1]; 30 min (0.5 hr) post injection): 0.15 ± 0.03 % dose/g
- Biodistribution: Skin ([1]; 30 min (0.5 hr) post injection): 0.41 ± 0.12 % dose/g
- Biodistribution: Spleen ([1]; 30 min (0.5 hr) post injection): 0.15 ± 0.04 % dose/g
- bone to blood ratio ([1]; 60 min): 97
- bone to muscle ratio ([1]; 60 min): 200
- Biodistribution: Blood ([1]; 60 min (1 hr) post injection): 0.12 ± 0.02 % dose/g
- Biodistribution: Bone ([1]; 60 min (1 hr) post injection): 11.4±0.3 % dose/g and 11.4 ± 0.31 % dose/g
- Biodistribution: Brain ([1]; 60 min (1 hr) post injection): 0.01 ± 0.00 % dose/g
- Biodistribution: Heart ([1]; 60 min (1 hr) post injection): 0.08 ± 0.02 % dose/g
- Biodistribution: Kidney ([1]; 60 min (1 hr) post injection): 1.48 ± 0.60 % dose/g
- Biodistribution: Liver ([1]; 60 min (1 hr) post injection): 0.13 ± 0.03 % dose/g
- Biodistribution: Lung ([1]; 60 min (1 hr) post injection): 0.20 ± 0.05 % dose/g
- Biodistribution: Muscle ([1]; 60 min (1 hr) post injection): 0.06 ± 0.01 % dose/g
- Biodistribution: Pancreas ([1]; 60 min (1 hr) post injection): 0.07 ± 0.02 % dose/g
- Biodistribution: Skin ([1]; 60 min (1 hr) post injection): 0.11 ± 0.03 % dose/g
- Biodistribution: Spleen ([1]; 60 min (1 hr) post injection): 0.07 ± 0.01 % dose/g
- Biodistribution: Blood ([1]; 6 hr post injection): 0.016 ± 0.007 % dose/g
- Biodistribution: Bone ([1]; 6 hr post injection): 12.7 ± 0.90 % dose/g
- Biodistribution: Brain ([1]; 6 hr post injection): 0.003 ± 0.003 % dose/g
- Biodistribution: Heart ([1]; 6 hr post injection): 0.024 ± 0.005 % dose/g
- Biodistribution: Kidney ([1]; 6 hr post injection): 0.686 ± 0.191 % dose/g
- Biodistribution: Liver ([1]; 6 hr post injection): 0.088 ± 0.021 % dose/g
- Biodistribution: Lung ([1]; 6 hr post injection): 0.062 ± 0.006 % dose/g
- Biodistribution: Muscle ([1]; 6 hr post injection): 0.031 ± 0.011 % dose/g
- Biodistribution: Pancreas ([1]; 6 hr post injection): 0.021 ± 0.001 % dose/g
- Biodistribution: Skin ([1]; 6 hr post injection): 0.052 ± 0.006 % dose/g
- Biodistribution: Spleen ([1]; 6 hr post injection): 0.038 ± 0.005 % dose/g
- bone to blood ratio ([1]; 6 hr post-injection): 909^a
- bone to muscle ratio ([1]; 6 hr post-injection): 454^a
- Biodistribution: Blood ([1]; 24 hr post injection): 0.003 ± 0.001 % dose/g
- Biodistribution: Bone ([1]; 24 hr post injection): 11.6 ± 1.14 % dose/g
- Biodistribution: Brain ([1]; 24 hr post injection): 0.014 ± 0.016 % dose/g
- Biodistribution: Heart ([1]; 24 hr post injection): 0.014 ± 0.003 % dose/g
- Biodistribution: Kidney ([1]; 24 hr post injection): 0.411 ± 0.125 % dose/g
- Biodistribution: Liver ([1]; 24 hr post injection): 0.068 ± 0.013 % dose/g
- Biodistribution: Lung ([1]; 24 hr post injection): 0.040 ± 0.003 % dose/g
- Biodistribution: Muscle ([1]; 24 hr post injection): 0.021 ± 0.005 % dose/g
- Biodistribution: Pancreas ([1]; 24 hr post injection): 0.013 ± 0.005 % dose/g
- Biodistribution: Skin ([1]; 24 hr post injection): 0.042 ± 0.008 % dose/g
- Biodistribution: Spleen ([1]; 24 hr post injection): 0.034 ± 0.005 % dose/g
- bone to blood ratio ([1]; 24 hr post-injection): 4312^b^
- bone to muscle ratio ([1]; 24 hr post-injection): 572^b
- Biodistribution result in words (organ uptake, retention, excretion) [1]: excellent bone uptake, retention in bone and fast kidney excretion
- Hydroxyapatite Binding (%) [2]: 90.9 ± 1.1%
